≈ marks a conversion by molar mass, not a printed value. Where two headings read alike, the source gives them in different places.

Consider 20 molecules from patent US6028195A, “Piperazine derivatives and process for the preparation thereof” (Samjin Pharmaceutical Co., Ltd., priority 1996, dated 2000).

Assay type in all cases: cell-based
Assay [1] has as its system SKMEL-2 (human melanoma). Put plainly: SRB assay, in vitro antitumor effect against SKMEL-2. Conditions: SK-MEL-2, 48 hours; for IC50: Homo sapiens, read-out: ED50 (the source's name). On the procedure:
(§1) In vitro antitumor effect against human tumor cell lines.
(§2) b. 5×10^3 ~2×10^4 cells were added into each well of 96-well plate and cultured in 5% CO2 incubator, at 37° C., for 24 hours.
(§3) c. Each sample drug was dissolved in a little DMSO and diluted with the used medium to a prescribed concentration for experiments, wherein the final concentration of DMSO was controlled below 0.5%.
(§4) d. Medium of each well cultured for 24 hours as above b. was removed by aspiration. Each 200 μl of drug samples prepared in c. was added into each well and the wells were cultured for 48 hours. Tz(time zero) plates were collected at the point of time drugs were added.
(§5) e. According to the SRB assay method, cell fixing with TCA, staining with 0.4% SRB solution, washing with 1% acetic acid and elution of dye with 10 mM Tris solution were carried out on Tz plates and culture-ended plates, and then, OD values were measured at 520 nm.
(§6) a. Time zero(Tz) value was determined with measuring the SRB protein value at the point of time drugs were added.
(§7) b. Control value(C) was determined with the OD value of an well untreated with drug.
(§8) c. Drug-treated test value(T) was determined with the OD value of drug-treated well.
(§9) d. Effects of drugs were estimated with growth stimulation, net growth inhibition, net killing etc. calculated from Tz, C and T.
(§10) e. If T≥Tz, cellular response function was calculated by 100×(T-Tz)/(C-Tz), and if T<Tz, by 100×(T-Tz)/Tz.

The test system of assay [2] is HCT-15 (human colon). As to the kind of experiment: SRB assay, in vitro antitumor effect against HCT-15. Conditions: for IC50: Homo sapiens. On the procedure:
as §1, §2, §3, §4, §5, §6, §7, §8, §9, §10

The test system of assay [3] is A549 (human non-small lung cell). As to the kind of experiment: SRB assay, in vitro antitumor effect against A549. The conditions noted are these: A549, 48 hours; for IC50: Homo sapiens, read-out: ED50 (the source's name). On the procedure:
as §1, §2, §3, §4, §5, §6, §7, §8, §9, §10

The subject of assay [4] is SKOV-3 (human ovarian). As to the kind of experiment: SRB assay, in vitro antitumor effect against SKOV-3. Conditions: SK-OV-3, 48 hours; for IC50: Homo sapiens, read-out: ED50 (the source's name). The protocol:
as §1, §2, §3, §4, §5, §6, §7, §8, §9, §10

Assay [5] deals with XF 498 (human CNS). As to the kind of experiment: SRB assay, in vitro antitumor effect against XF 498. The conditions noted are these: for IC50: Homo sapiens. On the procedure:
as §1, §2, §3, §4, §5, §6, §7, §8, §9, §10

Setting [6] is: HCT 15, 48 hours, read-out: ED50 (the source's name).
The mark [7] stands for this setting: XF498, XF-498, 48 hours, read-out: ED50 (the source's name).

With `COc1cc(C)c(C)cc1NC(=S)N1CCN(c2cc(F)cc(F)c2)CC1` [Example 200, 1-[(4,5-Dimethyl-2-methoxyphenyl)aminothiocarbonyl]-4-(3,5-difluorophenyl)piperazine], the IC50 in assay [1] turned out to be 0.26 µg/mL (≈ 0.664 µM); in assay [2] (setting [6]) it was 0.44 µg/mL (≈ 1.12 µM); in assay [3], 0.5 µg/mL (≈ 1.28 µM); in assay [4] it was 0.53 µg/mL (≈ 1.35 µM); in assay [5] (setting [7]) it was 1.01 µg/mL (≈ 2.58 µM).
For `COc1nc2ccccc2cc1NC(=S)N1CCN(c2cc(Cl)cc(Cl)c2)CC1` [Example 112, 1-[(2-Methoxyquinolin-3-yl)aminothiocarbonyl]-4-(3,5-dichlorophenyl)piperazine] the same measures were 0.22 µg/mL (≈ 0.492 µM), 0.61 µg/mL (≈ 1.36 µM), 0.56 µg/mL (≈ 1.25 µM), 6.43 µg/mL (≈ 14.4 µM) and 2.07 µg/mL (≈ 4.63 µM).
For the molecule `COc1nc(C)c(C(C)=O)cc1NC(=O)N1CCN(c2cc(C)cc(C)c2)CC1` [Example 47, 1-[(5-Acetyl-2-methoxy-6-methylpyridin-3-yl)aminocarbonyl]-4-(3,5-dimethylphenyl)piperazine], the IC50 in assay [1] is 0.47 µg/mL (≈ 1.19 µM); in assay [2] (setting [6]) it was 0.81 µg/mL (≈ 2.04 µM); in assay [3], 0.92 µg/mL (≈ 2.32 µM); in assay [4], 0.62 µg/mL (≈ 1.56 µM); in assay [5] (setting [7]), 0.64 µg/mL (≈ 1.61 µM).
As to `CCc1cc(NC(=O)N2CCN(c3ccccc3SC)CC2)c(OC)nc1C` [Example 4, 1-[(5-Ethyl-6-methyl-2-methoxypyridin-3-yl)aminocarbonyl]-4-(2-methylthiophenyl)piperazine], the IC50 was 0.007 µg/mL (≈ 0.0175 µM) in assay [1]; 0.093 µg/mL (≈ 0.232 µM) in assay [2] (setting [6]); 0.007 µg/mL (≈ 0.0175 µM) in assay [3]; 0.022 µg/mL (≈ 0.0549 µM) in assay [4]; 0.94 µg/mL (≈ 2.35 µM) in assay [5] (setting [7]).
Turning to `CCCc1cc(NC(=O)N2CCN(c3ccccc3OC)CC2)c(OC)nc1C` [Example 11, 1-[(2-Methoxy-6-methyl-5-propylpyridin-3-yl)aminocarbonyl]-4-(2-methoxyphenyl)piperazine], the IC50 in assay [1] was 0.62 µg/mL (≈ 1.56 µM); in assay [2] (setting [6]), 0.71 µg/mL (≈ 1.78 µM); in assay [3] it was 0.91 µg/mL (≈ 2.28 µM); in assay [4] it was 0.56 µg/mL (≈ 1.41 µM); in assay [5] (setting [7]), 0.73 µg/mL (≈ 1.83 µM).
As for `COc1cc(C)c(C)cc1NC(=O)N1CCN(c2cccc(Cl)c2)CC1` [Example 177, 1-[(4,5-Dimethyl-2-methoxyphenyl)aminocarbonyl]-4-(3-chlorophenyl)piperazine], the IC50 is 0.17 µg/mL (≈ 0.455 µM) in assay [1]; 0.09 µg/mL (≈ 0.241 µM) in assay [2] (setting [6]); 0.52 µg/mL (≈ 1.39 µM) in assay [3]; 0.39 µg/mL (≈ 1.04 µM) in assay [4]; 0.12 µg/mL (≈ 0.321 µM) in assay [5] (setting [7]).
As to `N.N.[Cl][Pt][Cl]` [Cisplatin, reference compound], the ED50 in assay [1] came out at 0.7147 µg/mL; in assay [2] (HCT 15, 48 hours), 3.0381 µg/mL; in assay [3], 0.8184 µg/mL; in assay [4], 0.7134 µg/mL; in assay [5] (XF-498, 48 hours), 0.7771 µg/mL.
Take `COc1nc(C)c(C(C)O)cc1NC(=S)N1CCN(c2cc(C)cc(C)c2)CC1` (stereo not shown) [Example 64, 1-{[5-(1-Hydroxyethyl)-2-methoxy-6-methylpyridin-3-yl]aminothiocarbonyl}-4-(3,5-dimethylphenyl)piperazine]: the IC50 in assay [1] was determined as 0.52 µg/mL (≈ 1.25 µM); in assay [2] (setting [6]), 0.37 µg/mL (≈ 0.892 µM); in assay [3] it was 0.42 µg/mL (≈ 1.01 µM); in assay [4], 0.56 µg/mL (≈ 1.35 µM); in assay [5] (setting [7]), 0.23 µg/mL (≈ 0.555 µM).
For `COc1nc(C)c(C)cc1NC(=S)N1CCN(c2cccc(O)c2)CC1` [Example 24, 1-[(5,6-Dimethyl-2-methoxypyridin-3-yl)aminothiocarbonyl]-4-(3-hydroxyphenyl)piperazine], in that order: 0.01 µg/mL (≈ 0.0268 µM), 0.01 µg/mL (≈ 0.0268 µM), 0.03 µg/mL (≈ 0.0805 µM), 0.006 µg/mL (≈ 0.0161 µM) and 0.234 µg/mL (≈ 0.628 µM).
With `COc1cc(C)c(C)cc1NC(=S)N1CCN(c2cc(Cl)cc(Cl)c2)CC1` [Example 201, 1-[(4,5-Dimethyl-2-methoxyphenyl)aminothiocarbonyl]-4-(3,5-dichlorophenyl)piperazine], the IC50 in assay [1] was 0.049 µg/mL (≈ 0.115 µM); in assay [2] (HCT-15, 48 h, read-out: ED50), 0.071 µg/mL (≈ 0.167 µM); in assay [3], 0.014 µg/mL (≈ 0.033 µM); in assay [4], 0.053 µg/mL (≈ 0.125 µM); in assay [5] (setting [7]), 0.026 µg/mL (≈ 0.0613 µM).
Regarding `C=Cc1cc(N(C)C(=O)N2CCN(c3cc(C)cc(C)c3)CC2)c(OC)nc1C` [Example 159, 1-[N-(2-Methoxy-6-methyl-5-vinylpyridin-3-yl)-N-methylaminocarbonyl]-4-(3,5-dimethylphenyl)piperazine], the IC50 in assay [1] was 0.07 µg/mL (≈ 0.177 µM); in assay [2] (setting [6]) it was 0.17 µg/mL (≈ 0.431 µM); in assay [3], 0.05 µg/mL (≈ 0.127 µM); in assay [4] it was 0.1 µg/mL (≈ 0.253 µM); in assay [5] (setting [7]), 0.21 µg/mL (≈ 0.532 µM).
For `CCCc1cc(NC(=O)N2CCN(c3cc(C)cc(C)c3)CC2)c(OC)nc1C` [Example 9, 1-[(2-Methoxy-6-methyl-5-propylpyridin-3-yl)aminocarbonyl]-4-(3,5-dimethylphenyl)piperazine] the same measures were 0.21 µg/mL (≈ 0.53 µM), 0.11 µg/mL (≈ 0.277 µM), 0.15 µg/mL (≈ 0.378 µM), 0.07 µg/mL (≈ 0.177 µM) and 0.11 µg/mL (≈ 0.277 µM).
Regarding `CCCc1nc(OC)c(NC(=S)N2CCN(c3cc(C)cc(C)c3)CC2)cc1C` [Example 27, 1-[(2-Methoxy-5-methyl-6-propylpyridin-3-yl)aminothiocarbonyl]-4-(3,5-dimethylphenyl)piperazine], the IC50 in assay [1] is 0.01 µg/mL (≈ 0.0242 µM); in assay [2] (setting [6]) it was 0.165 µg/mL (≈ 0.4 µM); in assay [3] it was 0.02 µg/mL (≈ 0.0485 µM); in assay [4], 0.11 µg/mL (≈ 0.267 µM); in assay [5] (XF498, 48 h, read-out: ED50), 0.046 µg/mL (≈ 0.111 µM).
Regarding `COc1cc(OC)cc(N2CCN(C(=S)Nc3cc(C(C)=O)c(C)nc3OC)CC2)c1` [Example 53, 1-[(5-Acetyl-2-methoxy-6-methylpyridin-3-yl)aminothiocarbonyl]-4-(3,5-dimethoxyphenyl)piperazine], the IC50 in assay [1] worked out at 0.64 µg/mL (≈ 1.44 µM); in assay [2] (setting [6]) it was 0.71 µg/mL (≈ 1.6 µM); in assay [3] it was 0.47 µg/mL (≈ 1.06 µM); in assay [4] it was 0.47 µg/mL (≈ 1.06 µM); in assay [5] (setting [7]), 0.67 µg/mL (≈ 1.51 µM).
As to `CCN(C(=O)N1CCN(c2cc(OC)cc(OC)c2)CC1)c1cc(C)c(C)nc1OC` [Example 133, 1-[N-Ethyl-N-(5,6-dimethyl-2-methoxypyridin-3-yl)aminocarbonyl]-4-(3,5-dimethoxyphenyl)piperazine], the IC50 amounted to 0.53 µg/mL (≈ 1.24 µM) in assay [1]; 0.57 µg/mL (≈ 1.33 µM) in assay [2] (setting [6]); 0.57 µg/mL (≈ 1.33 µM) in assay [3]; 0.94 µg/mL (≈ 2.19 µM) in assay [4]; 0.61 µg/mL (≈ 1.42 µM) in assay [5] (setting [7]).
As to `COc1cc(C)c(C)cc1NC(=S)N1CCN(c2ccccc2F)CC1` [Example 202, 1-[(4,5-Dimethyl-2-methoxyphenyl)amminothiocarbonyl]-4-(2-fluorophenyl)piperazine], the IC50 came out at 0.48 µg/mL (≈ 1.29 µM) in assay [1]; 0.64 µg/mL (≈ 1.71 µM) in assay [2] (setting [6]); 0.57 µg/mL (≈ 1.53 µM) in assay [3]; 1.26 µg/mL (≈ 3.37 µM) in assay [4]; 2.09 µg/mL (≈ 5.6 µM) in assay [5] (setting [7]).
Regarding `CCCc1nc(OC)c(N(C)C(=O)N2CCN(c3cc(OC)cc(OC)c3)CC2)cc1C` [Example 148, 1-[N-(2-Methoxy-5-methyl-6-propylpyridin-3-yl)-N-methylaminocarbonyl]-4-(3,5-dimethoxyphenyl)piperazine], the IC50 in assay [1] was 0.03 µg/mL (≈ 0.0678 µM); in assay [2] (setting [6]) it was 0.05 µg/mL (≈ 0.113 µM); in assay [3] it was 0.01 µg/mL (≈ 0.0226 µM); in assay [4], 0.07 µg/mL (≈ 0.158 µM); in assay [5] (setting [7]), 0.05 µg/mL (≈ 0.113 µM).
Regarding `COc1ccc(C)c(N2CCN(C(=O)N(C)c3cc(C)c(C)nc3OC)CC2)c1` [Example 140, 1-[N-(5,6-Dimethyl-2-methoxypyridin-3-yl)-N-methylaminocarbonyl]-4-(5-methoxy-2-methylphenyl)piperazine], the IC50 in assay [1] worked out at 0.56 µg/mL (≈ 1.41 µM); in assay [2] (setting [6]) it was 0.49 µg/mL (≈ 1.23 µM); in assay [3], 0.33 µg/mL (≈ 0.828 µM); in assay [4], 0.47 µg/mL (≈ 1.18 µM); in assay [5] (setting [7]) it was 0.54 µg/mL (≈ 1.36 µM).
For `COc1cc(C)c(C)cc1NC(=O)N1CCN(c2c(C)c(C)cc(C)c2C)CC1` [Example 174, 1-[(4,5-Dimethyl-2-methoxyphenyl)aminocarbonyl]-4-(2,3,5,6-tetramethylphenyl)piperazine] the same measures were 0.27 µg/mL (≈ 0.683 µM), 0.33 µg/mL (≈ 0.834 µM), 0.54 µg/mL (≈ 1.37 µM), 0.56 µg/mL (≈ 1.42 µM) and 0.49 µg/mL (≈ 1.24 µM).
On to `COc1nc2ccccc2cc1NC(=O)N1CCN(c2cc(Cl)cc(Cl)c2)CC1` [Example 85, 1-[(2-Methoxyquinolin-3-yl)aminocarbonyl]-4-(3,5-dichlorolphenyl)piperazine], for which the IC50 came to 0.039 µg/mL (≈ 0.0904 µM) in assay [1]; 0.1 µg/mL (≈ 0.232 µM) in assay [2] (setting [6]); 0.048 µg/mL (≈ 0.111 µM) in assay [3]; 0.117 µg/mL (≈ 0.271 µM) in assay [4]; 0.104 µg/mL (≈ 0.241 µM) in assay [5] (setting [7]).
